Test: recombinant UMI read abundance after kanamycin selection (control-corrected) (log10(CPM+1)); higher = more efficient recombination; extreme values may be limits of the assay; sequences stand for … in AGTGCAGAGAAAATCGGCCAGTTTTCTCTGCCTGCAGTCCGCATGCCGTGGGACCCCTTGGGTTCTAACCTGTTGCCTAGATTTATGCAGCGGACTGCCTTTCTCCCAAAGTGATAAACCGG…AGGTTGGTTTCACT; site = the 11-nt donor
Procedure, shortened: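 In Escherichia coli, a pool of donor and donor-binding-loop pairs, each with a 12-nt UMI, was tested for the IS621 bridge recombinase. Plating was on IPTG (0.07 mM) plus kanamycin, or without selection, in two replicates. Recombinant UMIs were amplified by PCR across the donor–target junction and sequenced, and counts were reported as log10(CPM+1) after averaging and control-derived scaling.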
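Further: IS621 bridge recombinase in Escherichia coli cells against a fixed T5 target plasmid.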

Sequence | recombinant UMI read abundance (log10)
TAGCCTTCATGGACCGGTTTTCCCGGTAATCCGTATTTGCT (site TAGCCTTCTAT) | 0
TAGCCTTCATGGACCGGTTTTCCCGGTAATCCGTATTTGGT (site AAGCCTTCTAC) | 0.00534
TAGCCTTCATGGACCGGTTTTCCCGGTAATCCGTATTTGGT (site CAGCCTTCTAC) | 0.00723
TAGCCTTCATGGACCGGTTTTCCCGGTAATCCGTATTTGGT (site GAGCCTTCTAC) | 0.0148
TAGCCTTCATGGACCGGTTTTCCCGGTAATCCGTATTTGGT (site TAACCTTCTAC) | 0
TAGCCTTCATGGACCGGTTTTCCCGGTAATCCGTATTTGGT (site TACCCTTCTAC) | 0.00592
TAGCCTTCATGGACCGGTTTTCCCGGTAATCCGTATTTGGT (site TAGACTTCTAC) | 0
TAGCCTTCATGGACCGGTTTTCCCGGTAATCCGTATTTGGT (site TAGCATTCTAC) | 0.0053
TAGCCTTCATGGACCGGTTTTCCCGGTAATCCGTATTTGGT (site TAGCCATCTAC) | 0.00583
TAGCCTTCATGGACCGGTTTTCCCGGTAATCCGTATTTGGT (site TAGCCCTCTAC) | 0.00791
TAGCCTTCATGGACCGGTTTTCCCGGTAATCCGTATTTGGT (site TAGCCGTCTAC) | 0.0151
TAGCCTTCATGGACCGGTTTTCCCGGTAATCCGTATTTGGT (site TAGCCTACTAC) | 0.0102
TAGCCTTCATGGACCGGTTTTCCCGGTAATCCGTATTTGGT (site TAGCCTCCTAC) | 0.00585
TAGCCTTCATGGACCGGTTTTCCCGGTAATCCGTATTTGGT (site TAGCCTGCTAC) | 0.0178
TAGCCTTCATGGACCGGTTTTCCCGGTAATCCGTATTTGGT (site TAGCCTTCTAA) | 0.0101
TAGCCTTCATGGACCGGTTTTCCCGGTAATCCGTATTTGGT (site TAGCCTTCTAC) | 0.00564
TAGCCTTCATGGACCGGTTTTCCCGGTAATCCGTATTTGGT (site TAGCCTTCTAG) | 0
TAGCCTTCATGGACCGGTTTTCCCGGTAATCCGTATTTGGT (site TAGCCTTCTAT) | 0.017
TAGCCTTCATGGACCGGTTTTCCCGGTAATCCGTATTTGGT (site TAGCCTTCTCC) | 0.0356
TAGCCTTCATGGACCGGTTTTCCCGGTAATCCGTATTTGGT (site TAGCCTTCTGC) | 0
TAGCCTTCATGGACCGGTTTTCCCGGTAATCCGTATTTGGT (site TAGCCTTCTTC) | 0.0121
TAGCCTTCATGGACCGGTTTTCCCGGTAATCCGTATTTGGT (site TAGCGTTCTAC) | 0
TAGCCTTCATGGACCGGTTTTCCCGGTAATCCGTATTTGGT (site TAGCTTTCTAC) | 0
TAGCCTTCATGGACCGGTTTTCCCGGTAATCCGTATTTGGT (site TAGGCTTCTAC) | 0.0025
TAGCCTTCATGGACCGGTTTTCCCGGTAATCCGTATTTGGT (site TAGTCTTCTAC) | 0

Sequence | recombinant UMI read abundance (log10)
TAGCCTTCATGGACCGGTTTTCCCGGTAATCCGTATTTGGT (site TATCCTTCTAC) | 0.379
TAGCCTTCATGGACCGGTTTTCCCGGTAATCCGTATTTGGT (site TCGCCTTCTAC) | 0.0137
TAGCCTTCATGGACCGGTTTTCCCGGTAATCCGTATTTGGT (site TGGCCTTCTAC) | 0
TAGCCTTCATGGACCGGTTTTCCCGGTAATCCGTATTTGGT (site TTGCCTTCTAC) | 0.0116
TAGCGAGCATGGACCGGTTTTCCCGGTAATCCGTATTTGTC (site TAGCGAGCTGA) | 2.41
TAGCGCTCATGGACCGGTTTTCCCGGTAATCCGTATTTGCA (site TAGCGCTCTTG) | 2.33
TAGCGTTCATGGACCGGTTTTCCCGGTAATCCGTATTTGGT (site TAGCATTCTAC) | 0.538
TAGCGTTCATGGACCGGTTTTCCCGGTAATCCGTATTTGGT (site TAGCCTTCTAC) | 0.00546
TAGCGTTCATGGACCGGTTTTCCCGGTAATCCGTATTTGGT (site TAGCGTTCTAC) | 1.12
TAGCGTTCATGGACCGGTTTTCCCGGTAATCCGTATTTGGT (site TAGCTTTCTAC) | 0
TAGCTAGCATGGACCGGTTTTCCCGGTAATCCGTATTTGAT (site TAGCTAGCTAT) | 1.59
TAGCTAGCATGGACCGGTTTTCCCGGTAATCCGTATTTGAT (site TAGCTAGCTCT) | 0.0164
TAGCTAGCATGGACCGGTTTTCCCGGTAATCCGTATTTGAT (site TAGCTAGCTGT) | 0
TAGCTAGCATGGACCGGTTTTCCCGGTAATCCGTATTTGAT (site TAGCTAGCTTT) | 0.0212
TAGCTAGCATGGACCGGTTTTCCCGGTAATCCGTATTTGCA (site TAGCTAGCTTA) | 0.178
TAGCTAGCATGGACCGGTTTTCCCGGTAATCCGTATTTGCA (site TAGCTAGCTTC) | 0.00756
TAGCTAGCATGGACCGGTTTTCCCGGTAATCCGTATTTGCA (site TAGCTAGCTTG) | 1.01
TAGCTAGCATGGACCGGTTTTCCCGGTAATCCGTATTTGCA (site TAGCTAGCTTT) | 0.0133
TAGCTAGCATGGACCGGTTTTCCCGGTAATCCGTATTTGTA (site TAGCTAGCTTA) | 1.62
TAGCTAGCATGGACCGGTTTTCCCGGTAATCCGTATTTGTA (site TAGCTAGCTTC) | 0.0102
TAGCTAGCATGGACCGGTTTTCCCGGTAATCCGTATTTGTA (site TAGCTAGCTTG) | 0.789
TAGCTAGCATGGACCGGTTTTCCCGGTAATCCGTATTTGTA (site TAGCTAGCTTT) | 0.235
TAGCTCTCATGGACCGGTTTTCCCGGTAATCCGTATTTGGG (site TAGCTCTCTCC) | 0.00931
TAGGAATCATGGACCGGTTTTCCCGGTAATCCGTATTTGAG (site TAGGAATCTCA) | 2.32
TAGGAATCATGGACCGGTTTTCCCGGTAATCCGTATTTGAG (site TAGGAATCTCC) | 1.84

Sequence | recombinant UMI read abundance (log10)
TAGGAATCATGGACCGGTTTTCCCGGTAATCCGTATTTGAG (site TAGGAATCTCG) | 1.36
TAGGAATCATGGACCGGTTTTCCCGGTAATCCGTATTTGAG (site TAGGAATCTCT) | 3.1
TAGGAATCATGGACCGGTTTTCCCGGTAATCCGTATTTGCG (site AAGGAATCTCG) | 2.07
TAGGAATCATGGACCGGTTTTCCCGGTAATCCGTATTTGCG (site CAGGAATCTCG) | 2.3
TAGGAATCATGGACCGGTTTTCCCGGTAATCCGTATTTGCG (site GAGGAATCTCG) | 0
TAGGAATCATGGACCGGTTTTCCCGGTAATCCGTATTTGCG (site TAAGAATCTCG) | 2.05
TAGGAATCATGGACCGGTTTTCCCGGTAATCCGTATTTGCG (site TACGAATCTCG) | 1.28
TAGGAATCATGGACCGGTTTTCCCGGTAATCCGTATTTGCG (site TAGAAATCTCG) | 2.39
TAGGAATCATGGACCGGTTTTCCCGGTAATCCGTATTTGCG (site TAGCAATCTCG) | 1.05
TAGGAATCATGGACCGGTTTTCCCGGTAATCCGTATTTGCG (site TAGGAAACTCG) | 1.27
TAGGAATCATGGACCGGTTTTCCCGGTAATCCGTATTTGCG (site TAGGAACCTCG) | 0
TAGGAATCATGGACCGGTTTTCCCGGTAATCCGTATTTGCG (site TAGGAAGCTCG) | 0.419
TAGGAATCATGGACCGGTTTTCCCGGTAATCCGTATTTGCG (site TAGGAATCTAG) | 1.42
TAGGAATCATGGACCGGTTTTCCCGGTAATCCGTATTTGCG (site TAGGAATCTCA) | 2.6
TAGGAATCATGGACCGGTTTTCCCGGTAATCCGTATTTGCG (site TAGGAATCTCC) | 1.39
TAGGAATCATGGACCGGTTTTCCCGGTAATCCGTATTTGCG (site TAGGAATCTCG) | 2.72
TAGGAATCATGGACCGGTTTTCCCGGTAATCCGTATTTGCG (site TAGGAATCTCT) | 2.03
TAGGAATCATGGACCGGTTTTCCCGGTAATCCGTATTTGCG (site TAGGAATCTGG) | 2.08
TAGGAATCATGGACCGGTTTTCCCGGTAATCCGTATTTGCG (site TAGGAATCTTG) | 1.85
TAGGAATCATGGACCGGTTTTCCCGGTAATCCGTATTTGCG (site TAGGACTCTCG) | 0.892
TAGGAATCATGGACCGGTTTTCCCGGTAATCCGTATTTGCG (site TAGGAGTCTCG) | 1.94
TAGGAATCATGGACCGGTTTTCCCGGTAATCCGTATTTGCG (site TAGGATTCTCG) | 1.39
TAGGAATCATGGACCGGTTTTCCCGGTAATCCGTATTTGCG (site TAGGCATCTCG) | 1.14
TAGGAATCATGGACCGGTTTTCCCGGTAATCCGTATTTGCG (site TAGGGATCTCG) | 1.43
TAGGAATCATGGACCGGTTTTCCCGGTAATCCGTATTTGCG (site TAGGTATCTCG) | 1.63
